Laboratory results published in paper PMC7880572 (ACS Chemical Neuroscience, 2021).
Where two headings read alike, the source gives them in different places.

Key:
[1] = target: T1, eeAChE (AChE from electric eel) (Electrophorus electricus, UniProt O42275); experiment: biochemical; conditions: mean ± SEM, n = 3
T1 construct: purchased Sigma-Aldrich, Milan, Italy

[2] = target: T2, esBChE (BChE from equine serum) (Equus caballus, UniProt P81908); experiment: biochemical; conditions: mean ± SEM, n = 3
T2 construct: BChE from horse serum (13 U/mL); purchased Sigma-Aldrich, Milan, Italy; host or cells: horse serum

[3] = target: T3, MAO B (Homo sapiens, UniProt P27338); experiment: MAO B inhibition (fluorimetric kynuramine assay, inhibition kinetics); format: biochemical; conditions: for IC50: mean ± SEM, n = 3
T3 construct: purchased Sigma-Aldrich
T3 sequence (P27338 1-520): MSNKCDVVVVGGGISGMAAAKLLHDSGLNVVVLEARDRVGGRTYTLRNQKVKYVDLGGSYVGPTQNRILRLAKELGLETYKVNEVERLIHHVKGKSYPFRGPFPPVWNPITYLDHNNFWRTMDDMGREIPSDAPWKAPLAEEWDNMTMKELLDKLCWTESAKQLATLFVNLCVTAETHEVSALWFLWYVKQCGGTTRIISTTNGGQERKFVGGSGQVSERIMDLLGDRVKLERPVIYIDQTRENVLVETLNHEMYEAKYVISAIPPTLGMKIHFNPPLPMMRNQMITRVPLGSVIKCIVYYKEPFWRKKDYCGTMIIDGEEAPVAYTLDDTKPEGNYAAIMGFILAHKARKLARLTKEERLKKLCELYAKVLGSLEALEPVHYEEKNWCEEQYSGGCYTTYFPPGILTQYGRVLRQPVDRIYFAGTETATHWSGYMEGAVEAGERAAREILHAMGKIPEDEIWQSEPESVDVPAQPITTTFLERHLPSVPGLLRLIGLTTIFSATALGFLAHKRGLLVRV

[4] = target: T4, Aβ40 (Homo sapiens, UniProt P05067); experiment: Inhibition of self-induced Aβ40 aggregation (ThT fluorescence, HFIP); format: biochemical; conditions: Aβ40 30 μM, 2 h at 25 °C, PBS 2% HFIP; mean ± SEM, n = 3; read-out: Aβ40 aggr IC50
T4 construct: samples of Aβ40 (30 μM) were coincubated for 2 h at 25 °C with test molecules; purchased EzBiolab, Carmel, IN, USA
Procedure: In vitro inhibition of Aβ40 aggregation was assessed following a previously reported thioflavin T (ThT) fluorescence-based method involving the use of hexafluoroisopropanol (HFIP) as aggregation enhancer. […].
In vitro inhibition assay of Aβ40 aggregation has been previously reported[41] and adapted to a 96-well plate platform.
(§1) After incubation in 96-well black, nonbinding microplates (Greiner Bio-One GmbH, Frickenhausen, Germany), thioflavin T (25 μM) was added and fluorimetric reads (ex 440, em 485 nm) were performed in a multiplate reader Infinite M1000 Pro (Tecan, Cernusco sul Naviglio, Italy). Experiments were run in triplicate. Results were expressed by statistical analysis while IC50 values were obtained by nonlinear regression using Prism software (GraphPad Prism version 5.00 for Windows, GraphPad Software, San Diego, CA, USA).

[5] = target: T5, hMAO A (Homo sapiens, UniProt P21397); experiment: MAO A inhibition (fluorimetric kynuramine assay); format: biochemical; conditions: mean ± SEM, n = 3
T5 construct: purchased Sigma-Aldrich
T5 sequence (P21397 1-527): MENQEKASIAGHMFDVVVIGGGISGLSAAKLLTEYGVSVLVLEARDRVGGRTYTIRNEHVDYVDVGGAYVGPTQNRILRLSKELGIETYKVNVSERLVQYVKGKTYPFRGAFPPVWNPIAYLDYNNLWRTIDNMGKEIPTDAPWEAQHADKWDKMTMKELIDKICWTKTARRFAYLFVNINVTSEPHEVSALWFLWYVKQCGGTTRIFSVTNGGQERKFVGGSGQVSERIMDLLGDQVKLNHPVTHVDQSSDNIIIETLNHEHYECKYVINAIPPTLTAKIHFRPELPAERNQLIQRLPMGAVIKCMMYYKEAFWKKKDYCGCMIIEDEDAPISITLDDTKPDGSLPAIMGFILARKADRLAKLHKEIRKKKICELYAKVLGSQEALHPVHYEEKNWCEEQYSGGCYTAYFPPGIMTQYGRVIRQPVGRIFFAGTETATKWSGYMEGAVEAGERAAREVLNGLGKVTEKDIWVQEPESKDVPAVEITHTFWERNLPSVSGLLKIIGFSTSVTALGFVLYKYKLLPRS

[6] = target: T6, Aβ42 (Homo sapiens, UniProt P05067); experiment: Inhibition of Aβ42 fibrillation by ThT fluorescence assay; format: biochemical; conditions: Aβ42 30 μM, 37 °C, 48 h; for inhibition of Aβ42 aggregation (activity profile): 100 and 5 μM
T6 construct: purchased EzBiolab, Carmel, IN, USA
Procedure: Its high propensity to self-aggregate allows a fast execution of aggregation assays without the need of aggregation enhancers as for Aβ40.
Quercetin (QUR) was used as reference compound.
as §1

[7] = test system: AChE; design: method as in PMID 25924599; conditions: first series; cited from earlier work
[8] = test system: BChE; design: method as in PMID 25924599; conditions: first series; cited from earlier work
[9] = target: T4, Aβ40; design: method as in PMID 25924599; conditions: first series; cited from earlier work
[10] = target: PHF6 tau sequence (Homo sapiens, UniProt P10636); experiment: Inhibition of PHF6 aggregation (ThT fluorescence); conditions: for inhibition at 10 µM: read-out: PHF6 aggregation inhibition
[11] = based on the PAMPA-BBB classification range from Di et al.
[12] = test system: cerebellar granule cells; experiment: In vitro cytotoxicity (MTT); format: cell-based; conditions: CGCs, compound 10 μM, 48 h, mean ± SEM
Procedure: . […] For a more meaningful assessment of the value of the present compounds, the issue of their toxicity, in comparison to established drugs for AD, should deserve further investigation.
Cerebellar granule cells were prepared from 8-day-old Sprague Dawley rats as described previously.[66] Cells were studied from the 6th to the 12th day in vitro. The experimental procedures and care of the animals were performed in compliance with the Directive of the EU Parliament and Council of September 22, 2010 (2010/63/EU) and were approved by the Italian Ministry of Health (COD. 75F11.N.6DX) in accordance with D.M. 116/1992. All efforts were made in order to minimize animal suffering and the number of animals necessary to obtain reliable results.
[…]. Cells were maintained in 5% CO2 at 37 °C. The cell viability was assessed by the MTT assay 48 h after the treatment. […]. The survival rates of viable cells were calculated by comparing the optical absorbance of treated samples with that of the untreated controls. All experiments were repeated at least three times independently, and data are expressed as the mean ± SEM.

[13] = in vitro; conditions: PAMPA, pH 7.4
[14] = target: T7, R3 tau sequence (Homo sapiens, UniProt P10636); experiment: Inhibition of R3 aggregation (ThT fluorescence); format: biochemical; conditions: R3 25 μM, 4 h at 37 °C; mean of two independent experiments
T7 construct: The 30-amino acid peptide (V306-Q336) R3; purchased Bachem, Bubendorf, Switzerland
Text: . The 30-amino acid peptide (V306-Q336) R3 is a high-repeated domain containing the PHF6 sequence and present in all tau isoforms.[62] Its high propensity to self-aggregate in buffered solutions, even in the absence of aggregation inducers such as heparin,[63] makes R3 a reliable surrogate of full-length tau protein for in vitro experiments. In our assay protocol, the commercial R3 peptide was pretreated with 1,1,1-trifluoroethanol (TFE) overnight in order to dissolve any preformed aggregate and reestablish the random coil arrangement, then diluted in PBS at the test concentration of 25 μM.
A stock solution of 1.5 mM R3 (trifluoroacetate salt; Bachem, Bubendorf, Switzerland) was prepared in TFE and left overnight at room temperature. […] . […] IC50 values were calculated by means of Prism as the mean of two independent experiments.

[15] = literature reported PAMPA-BBB permeability; ref 1 (Di et al., 2003); cited from earlier work
[16] = target: T3, MAO B; experiment: MAO B kynuramine assay in spectrophotometric mode (4-hydroxyquinoline absorbance at 316 nm), incl. time course; format: biochemical

T1 sequence (O42275 24-633): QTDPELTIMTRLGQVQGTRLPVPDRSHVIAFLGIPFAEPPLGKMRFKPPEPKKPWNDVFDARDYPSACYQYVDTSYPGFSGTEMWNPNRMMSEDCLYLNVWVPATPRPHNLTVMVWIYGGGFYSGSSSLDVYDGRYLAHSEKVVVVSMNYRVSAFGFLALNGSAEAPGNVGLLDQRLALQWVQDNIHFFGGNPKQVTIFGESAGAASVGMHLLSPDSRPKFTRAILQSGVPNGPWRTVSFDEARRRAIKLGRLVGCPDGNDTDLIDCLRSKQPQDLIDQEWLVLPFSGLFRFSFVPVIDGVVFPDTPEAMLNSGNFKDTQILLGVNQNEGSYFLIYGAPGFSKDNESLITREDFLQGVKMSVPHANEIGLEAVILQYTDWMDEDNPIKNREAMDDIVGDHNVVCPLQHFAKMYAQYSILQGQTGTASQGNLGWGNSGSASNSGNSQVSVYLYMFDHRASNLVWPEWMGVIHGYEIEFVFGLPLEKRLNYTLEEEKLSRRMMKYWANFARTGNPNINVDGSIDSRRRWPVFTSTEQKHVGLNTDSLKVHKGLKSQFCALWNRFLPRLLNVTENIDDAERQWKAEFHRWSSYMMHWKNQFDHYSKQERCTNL
T6 sequence (P05067 672-713 limits assumed): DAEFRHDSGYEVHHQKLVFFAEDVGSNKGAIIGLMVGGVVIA
T2 sequence (P81908 whole entry): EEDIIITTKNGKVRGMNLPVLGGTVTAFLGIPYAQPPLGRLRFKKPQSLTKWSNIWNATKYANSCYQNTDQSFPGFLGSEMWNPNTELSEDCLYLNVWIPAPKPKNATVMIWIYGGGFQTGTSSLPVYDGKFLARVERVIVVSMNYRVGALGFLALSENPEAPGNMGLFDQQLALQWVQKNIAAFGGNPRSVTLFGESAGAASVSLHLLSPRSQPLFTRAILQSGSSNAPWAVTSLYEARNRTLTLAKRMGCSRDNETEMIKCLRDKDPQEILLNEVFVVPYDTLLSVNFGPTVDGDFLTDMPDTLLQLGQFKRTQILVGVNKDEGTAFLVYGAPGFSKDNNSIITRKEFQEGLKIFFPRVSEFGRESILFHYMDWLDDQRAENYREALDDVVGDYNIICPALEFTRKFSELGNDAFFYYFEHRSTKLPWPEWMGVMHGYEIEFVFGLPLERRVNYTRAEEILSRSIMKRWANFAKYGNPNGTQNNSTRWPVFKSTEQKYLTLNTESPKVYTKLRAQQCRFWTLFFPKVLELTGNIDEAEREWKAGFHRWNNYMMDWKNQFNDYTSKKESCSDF
T4 sequence (P05067 672-711 limits assumed): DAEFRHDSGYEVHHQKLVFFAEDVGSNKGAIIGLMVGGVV
T7 sequence (P10636 623-653 limits assumed): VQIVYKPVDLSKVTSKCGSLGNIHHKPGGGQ

Structure (SMILES): O=C1c2ccccc2C(=O)c2c(NCCn3nnc4ccccc43)cccc21 [Compound 14, 1-{[2-(1H-Benzotriazol-1-yl)ethyl]amino}-9,10-anthraquinone]
- IC50 [1]: 8.1 ± 0.5 µM
- IC50 [2]: 3.4 ± 0.2 µM
- IC50 [3]: 0.98 ± 0.14 µM
- IC50 [4]: 11 ± 2 µM
- inhibition at 10 µM [5]: 53%
- inhibition of Aβ42 aggregation (activity profile) [6]: best activity profile

Structure (SMILES): O=C1C(Cl)=C(NCCCC2CCCN3CCCCC23)C(=O)c2ccccc21 (stereo not shown) [VI]
- IC50 [7]: 0.011 µM
- IC50 [8]: 12 µM

Structure (SMILES): O=C1c2ccccc2C(=O)c2c(NC[C@@H]3CCCN4CCCC[C@H]34)cccc21 [IX]
- IC50 [7]: 0.84 µM
- IC50 [9]: 6.4 µM

Structure (SMILES): O=C1c2ccccc2C(=O)c2c(NCCc3ccccc3)cccc21 [Compound 11, 1-(Phenethylamino)-9,10-anthraquinone]
- IC50 [1]: 7.3 ± 0.7 µM
- IC50 [10]: 1.78 ± 0.23 µM
- inhibition at 10 µM [10]: > 95%
- CNS prediction [11]: CNS+
- cell viability vs control (%) [12]: 85 ± 15%
- IC50 [2]: 1.7 ± 0.3 µM
- Papp at 16 h [13]: 24.7 ± 2.2 ×10⁻⁶ cm/s
- IC50 [3]: 0.57 ± 0.02 µM
- IC50 [4]: 2.1 ± 0.2 µM
- IC50 [14]: 0.36 ± 0.02 µM
- IC50 [5]: 3.1 ± 0.3 µM
- inhibition of Aβ42 aggregation (activity profile) [6]: best activity profile

Structure (SMILES): O=C1Nc2ccc(Cl)cc2C(c2ccccc2)=NC1O (stereo not shown) [Oxazepam]
- Pe,rep [15]: 10 10-6 cm/s
- Papp [13]: 9.1 ×10⁻⁶ cm/s

Structure (SMILES): O=C1C(Cl)=C(NCCc2c[nH]c3ccccc23)C(=O)c2ccccc21 [Compound 5]
- IC50 [1]: 8.7 ± 0.8 µM
- CNS prediction [11]: CNS+
- cell viability vs control (%) [12]: 85 ± 14%
- inhibition at 10 µM [2]: 29%
- Papp at 16 h [13]: 14.3 ± 1.3 ×10⁻⁶ cm/s
- IC50 [3]: 0.11 ± 0.01 µM
- IC50 [4]: 6.6 ± 0.1 µM
- IC50 [5]: 5 ± 0.2 µM

Structure (SMILES): O=C1c2ccccc2C(=O)c2c(NCCCc3ccccc3)cccc21 [Compound 12, 1-[(3-Phenylpropryl)amino]-9,10-anthraquinone]
- IC50 [1]: 7.84 ± 0.03 µM
- CNS prediction [11]: CNS+
- cell viability vs control (%) [12]: 77 ± 12%
- IC50 [2]: 8.2 ± 0.4 µM
- Papp at 16 h [13]: 22 ± 1.9 ×10⁻⁶ cm/s
- IC50 [3]: 0.24 ± 0.05 µM
- IC50 [4]: 1.9 ± 0.3 µM
- inhibition at 10 µM [5]: 50%
- inhibition of Aβ42 aggregation (activity profile) [6]: best activity profile

Structure (SMILES): O=C1C(Cl)=C(NCCCSC[C@@H]2CCCN3CCCC[C@H]23)C(=O)c2ccccc21 [VII]
- IC50 [9]: 61 µM
- IC50 [8]: 4.1 µM

Structure (SMILES): O=C1C(Cl)=C(NCc2ccccc2)C(=O)c2ccccc21 [Compound 2]
- IC50 [1]: 9.2 ± 0.6 µM
- inhibition at 10 µM [10]: 91%
- CNS prediction [11]: CNS+
- cell viability vs control (%) [12]: 89 ± 14%
- inhibition at 10 µM [2]: 26%
- Papp at 16 h [13]: 28.4 ± 2.1 ×10⁻⁶ cm/s
- increase of Ki for higher coincubation times ([3]; coincubation up to 2 h vs 5 min): about 20 fold
- MAO B inhibition mechanism ([3]; coincubation with enzyme limited to 5 min): competitive inhibition
- MAO B inhibition mechanism ([3]; higher coincubation times (up to 2 h)): noncompetitive
- IC50 [3]: 0.0077 ± 0.0013 µM
- selectivity MAO B versus MAO A ([3]; ratio of inhibitory activities): 473 fold
- MAO B enzymatic activity in time course ([16]; 10 nM inhibitor, absorption of 4-hydroxyquinoline at 316 nm): still present even after 3 h
- IC50 ([16]; absorbance of 4-hydroxyquinoline at 316 nm): 0.018 µM
- IC50 [4]: 3.2 ± 0.8 µM
- IC50 [5]: 3.6 ± 0.3 µM
- inhibition of Aβ42 aggregation ([6]; lower concentration used (5 μM)): strong inhibitor

Structure (SMILES): Cc1nnc2n1-c1ccc(Cl)cc1C(c1ccccc1)=NC2 [Alprazolam]
- Pe,rep [15]: 5.4 10-6 cm/s
- Papp [13]: 4.8 ×10⁻⁶ cm/s

Structure (SMILES): O=C1c2ccccc2C(=O)c2c(NCCCSC[C@@H]3CCCN4CCCC[C@H]34)cccc21 [XII]
- IC50 [8]: 1.1 µM

Structure (SMILES): CCN(CC)CCCNc1cccc2c1C(=O)c1ccccc1C2=O [XIII]
- IC50 [9]: 61 µM

Structure (SMILES): O=C1C(Cl)=C(NCCc2ccccc2)C(=O)c2ccccc21 [Compound 3]
- IC50 [1]: 7.9 ± 0.8 µM
- IC50 [10]: 4.96 ± 0.75 µM
- inhibition at 10 µM [10]: > 95%
- inhibition at 10 µM [2]: 24%
- IC50 [3]: 0.031 ± 0.001 µM
- IC50 [4]: 4.4 ± 0.3 µM
- IC50 [14]: 1.19 ± 0.44 µM
- inhibition at 10 µM [5]: 41%

Structure (SMILES): O=C1c2ccccc2C(=O)c2c(SC[C@@H]3CCCN4CCCC[C@H]34)cccc21 [XIV]
- IC50 [7]: 3.8 µM
- IC50 [8]: 3.4 µM
